Assay [1] concerns luciferase-expressing L. major parasites developing intracellularly inside RAW 264.7 macrophages. In words: Leishmania major intracellular amastigote assay in RAW 264.7 macrophages (luciferase). Type of assay: cell-based. As to conditions: RAW264.7, 96 hours, read-out: IC50: I Org. intracellular amastigote Growth L. major, 4 d. The procedure, abridged:
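RAW 264.7 macrophages infected overnight with luciferase-expressing L. major promastigotes, washed of extracellular parasites, then exposed to two-fold compound dilutions (final 0.5-10,000 ng/ml) for 96 h at 37° C, 5% CO2. Luciferin luminescence after 30 min; IC50 by sigmoidal variable-slope regression.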

Assay [2] has as its system bloodstream forms of T. b. rhodesiense STIB 900. Put plainly: T. brucei rhodesiense STIB 900 growth inhibition assay. As to conditions: Trypanosoma brucei, 72 h. Type of assay: cell-based. In short, it runs like this: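 Bloodstream-form STIB 900 (10^4/well) were cultured in supplemented MEM with 15% horse serum and compound (90 to 0.123 μg/ml, 3-fold steps) for 72 h at 37 °C, 5% CO2. Viability was read by Alamar Blue fluorescence (ex 536/em 588 nm) after a further 2-4 h.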

The mark [3] stands for this setting: bloodstream forms, Alamar Blue, protocol of Example 110, read-out: IC50: I Org. Growth T. brucei rhodesiense STIB 900, 3 d.

Where two headings read alike, the source gives them in different places.

Take `Cc1c(C(=O)Nc2ccc3c(c2)B(O)OC3)nnn1-c1ccccn1` [Example 84, N-(1-hydroxy-1,3-dihydrobenzo[c][1,2]oxaborol-6-yl)-5-methyl-1-(pyridin-2-yl)-1H-1,2,3-triazole-4-carboxamide]: the IC50 is 1100 to 9900 nM in assay [1] and less than 0.1 µM in assay [2] (setting [3]).
Regarding `Cc1c(C(=O)Nc2ccc3c(c2)B(O)OC3)nnn1-c1ccccc1` [Example 89, A-(1-hydroxy-1,3-dihydrobenzo[c][1,2]oxaborol-6-yl)-5-methyl-1-phenyl-1H-1,2,3-triazole-4-carboxamide], the IC50 in assay [1] is no more than 1000 nM; in assay [2] (read-out: IC50: I Org. Growth T. brucei rhodesiense STIB 900, 3 d [uM]) it was less than 0.1 µM.
In the case of `Cc1c(C(=O)Nc2ccc3c(c2)B(O)OC3)nnn1-c1cccnc1` [Example 93, N-(1-hydroxy-1,3-dihydrobenzo[c][1,2]oxaborol-6-yl)-5-methyl-1-(pyridin-3-yl)-1H-1,2,3-triazole-4-carboxamide], the IC50 is 10000 to 50000 nM in assay [1] and 0.31 to 10 µM in assay [2] (setting [3]).

Source of the values: US11691992B2 (Anacor Pharmaceuticals, Inc., priority 2017, dated 2023).
